The values that follow are results of earlier work, collected in patent US4014909A, “Esters of 21-thiol steroids” (priority 1974, dated 1977).

For this series the following is noted: U.S. Pat. No. 2,814,632; cited from earlier work.

Take `CC(=O)SCC(=O)[C@@]1(O)CC[C@H]2[C@@H]3CCC4=CC(=O)C=C[C@]4(C)[C@H]3[C@@H](O)C[C@@]21C` [21-thio-acetate of prednisolone]: the Adreno-corticoid activity entry is recorded as “possessing an adreno-corticoid activity” and the Diuretic activity entry is “considerable diuretic activity”.
